Among the data in PubChem BioAssay (NCI) are GI50 and TGI values, retold here.

Test systems include A549 NSCLC; HCC-2998 colon; HCT-116 colon; HS 578T breast; MALME-3M melanoma; MDA-MB-231 breast; MDA-MB-435; OVCAR-3 ovarian; RPMI-8226 leukemia; SK-OV-3 ovarian.
What all share (assay): growth of human tumour cells (NCI), 48 h

Several values for one entry are separate records, joined by “and”; a condition that tells them apart may be missing. Equal values may be shown once.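 Values below derive from 48-hour exposures of cells grown in 96-well plates, with endpoints linearly interpolated between the two concentrations bracketing the appropriate inhibition level. At the GI50, growth is halved. TGI: total growth inhibition.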

As for `NC(N)=N/N=C\c1cccc(OCc2ccccc2)c1`, the GI50 in the test with A549 NSCLC is 9.2 µM; in the test with HCC-2998 colon, 1.81 µM; in the test with HCT-116 colon it was 1.84 µM; in the test on HS 578T breast, 9.12 µM; in the test with MALME-3M melanoma it was 3.35 µM; in the test with MDA-MB-231 breast, 2.37 µM. The GI50 in the test on MDA-MB-435 was 1.97 µM; in the test with OVCAR-3 ovarian, 6.51 µM; in the test with RPMI-8226 leukemia, 2.33 µM; in the test on SK-OV-3 ovarian it was 10.5 µM. The TGI with A549 NSCLC worked out at 24.1 µM; with HCC-2998 colon it was 3.54 µM; with HCT-116 colon, 3.96 µM; with HS 578T breast, 28.7 µM; in the test on MALME-3M melanoma, 13.5 µM; with MDA-MB-231 breast, 6.11 µM. For the same molecule, the TGI with MDA-MB-435 was 4.56 µM; in the test with OVCAR-3 ovarian, 23 µM; with RPMI-8226 leukemia, 8.17 µM; with SK-OV-3 ovarian it was 22.3 µM.

For `O=C(c1ccco1)c1nc2cc(Cl)ccc2[n+]([O-])c1C(F)(F)F`, the GI50 was 63.3 µM with A549 NSCLC; 18.5 µM in the test with HCC-2998 colon; 40.6 µM in the test on HCT-116 colon; above 100 µM in the test on HS 578T breast; 47.9 µM in the test on MALME-3M melanoma; 34.2 µM in the test on MDA-MB-231 breast. The GI50 with MDA-MB-435 was above 100 µM; in the test with OVCAR-3 ovarian, above 100 µM; in the test on RPMI-8226 leukemia, 10.8 µM; in the test on SK-OV-3 ovarian, above 100 µM. The TGI was above 100 µM in the test on A549 NSCLC; 34.9 µM in the test with HCC-2998 colon; above 100 µM with HCT-116 colon; above 100 µM in the test with HS 578T breast; above 100 µM in the test with MALME-3M melanoma; above 100 µM in the test on MDA-MB-231 breast. Besides, the TGI in the test with MDA-MB-435 is above 100 µM; with OVCAR-3 ovarian, above 100 µM; in the test on RPMI-8226 leukemia it was 44 µM; with SK-OV-3 ovarian it was above 100 µM.

Take `C=C1C(=O)O[C@H]2[C@H]1CC/C(Cn1cc(-c3cc(C(F)(F)F)cc(C(F)(F)F)c3)nn1)=C\CC[C@@]1(C)O[C@@H]21`: the GI50 is 1.36 µM in the test on A549 NSCLC; 1.17 µM with HCC-2998 colon; 0.153 µM in the test on HCT-116 colon; 1.03 µM in the test with HS 578T breast; 0.521 µM in the test on MALME-3M melanoma; 0.333 µM with MDA-MB-231 breast. Moreover, the GI50 in the test on MDA-MB-435 is 0.743 µM; with OVCAR-3 ovarian, 0.152 µM; in the test on RPMI-8226 leukemia it was 0.221 µM; in the test with SK-OV-3 ovarian, 1.86 µM. The TGI came to 3.01 µM in the test with A549 NSCLC; 2.51 µM in the test with HCC-2998 colon; 0.312 µM with HCT-116 colon; 4.23 µM with HS 578T breast; 2.16 µM in the test with MALME-3M melanoma; 1.06 µM with MDA-MB-231 breast. For the same molecule, the TGI with MDA-MB-435 is 2.08 µM; in the test on OVCAR-3 ovarian it was 0.358 µM; in the test on RPMI-8226 leukemia, 0.522 µM; in the test with SK-OV-3 ovarian, 3.43 µM.

As for `N[C@@H]1CCCC[C@H]1N.O=C([O-])C(=O)[O-].[Pt+4]`, the GI50 is 0.615 µM in the test on A549 NSCLC; 0.618 µM with HCC-2998 colon; 0.378 µM in the test on HCT-116 colon; above 100 µM with HS 578T breast; 3.22 µM in the test on MALME-3M melanoma; above 100 µM in the test on MDA-MB-231 breast. In addition, the GI50 in the test on MDA-MB-435 was 0.577 µM; in the test with OVCAR-3 ovarian, 5.71 µM; in the test on RPMI-8226 leukemia, 0.0528 µM; in the test on SK-OV-3 ovarian it was above 66.2 µM. Moreover, the TGI was above 84.1 µM in the test with A549 NSCLC; 10 µM in the test with HCC-2998 colon; above 100 µM in the test on HCT-116 colon; above 100 µM with HS 578T breast; 26.6 µM in the test with MALME-3M melanoma; above 100 µM in the test with MDA-MB-231 breast. Besides, the TGI was 18.6 µM with MDA-MB-435, 25.9 µM in the test with OVCAR-3 ovarian, above 91.2 µM in the test on RPMI-8226 leukemia and above 100 µM in the test on SK-OV-3 ovarian.

With `C/C(=N/Nc1nc2ccccc2n1C)c1ccccn1`, the GI50 with A549 NSCLC is 0.106 µM; in the test on HCC-2998 colon, 0.493 µM; in the test with HS 578T breast, 0.287 µM; with MALME-3M melanoma, 0.148 µM; in the test on MDA-MB-231 breast, 0.0561 µM; in the test with MDA-MB-435, 0.229 µM. Also, the figures for the GI50 in the test on OVCAR-3 ovarian, in the test with RPMI-8226 leukemia and with SK-OV-3 ovarian were below 0.0153 µM, 0.0398 µM and 0.113 µM, respectively. Also, the TGI in the test on A549 NSCLC came out at 14.5 µM; in the test on HCC-2998 colon, 15.6 µM; with HCT-116 colon, 14.8 µM; in the test with HS 578T breast it was 25.6 µM; in the test on MALME-3M melanoma it was 16.7 µM; in the test on MDA-MB-231 breast, 15.3 µM. For the same molecule, the TGI is 20.7 µM in the test on MDA-MB-435, 14.1 µM in the test on OVCAR-3 ovarian, 15.3 µM with RPMI-8226 leukemia and 5.93 µM in the test with SK-OV-3 ovarian.

Consider `O=c1ccn(C2OC(CO/N=C/c3ccc(O)c(O)c3O)C(O)C2O)c(=O)[nH]1` (stereo not drawn), for which the GI50 is 54.3 µM with A549 NSCLC; above 100 µM in the test on HCC-2998 colon; 20.6 µM in the test on HCT-116 colon; 22.8 µM in the test with HS 578T breast; 10.1 µM in the test on MALME-3M melanoma; 30 µM in the test on MDA-MB-231 breast. Moreover, the GI50 in the test on MDA-MB-435 was 15.8 µM; with OVCAR-3 ovarian, 13.6 µM; in the test on RPMI-8226 leukemia, 49.5 µM; with SK-OV-3 ovarian, 27.2 µM. The TGI with A549 NSCLC is above 100 µM; in the test on HCC-2998 colon, above 100 µM; in the test on HCT-116 colon, 58.7 µM; in the test with HS 578T breast, 59.7 µM; in the test on MALME-3M melanoma, above 100 µM; with MDA-MB-231 breast it was above 100 µM. The TGI in the test with MDA-MB-435 is 31.3 µM; in the test with OVCAR-3 ovarian, 27.7 µM; in the test with RPMI-8226 leukemia, above 100 µM; in the test on SK-OV-3 ovarian, 89 µM.

On to `CCOC(=O)c1[nH]c(Br)c(-c2ccc(Br)cc2)c1Br`, for which the GI50 with A549 NSCLC was 8.15 µM; with HCC-2998 colon, 11.6 µM; with HCT-116 colon, 0.445 µM; with MALME-3M melanoma, 0.46 µM; with MDA-MB-231 breast, 0.782 µM; in the test with MDA-MB-435 it was 0.0997 µM. Also, the GI50 in the test with OVCAR-3 ovarian was 0.37 µM; in the test on RPMI-8226 leukemia it was 0.357 µM; in the test with SK-OV-3 ovarian, 0.967 µM. The TGI in the test on A549 NSCLC was 29.8 µM; in the test on HCC-2998 colon, above 100 µM; in the test with HCT-116 colon it was 1.92 µM and 10.6 µM; in the test with HS 578T breast, 13.2 µM; in the test with MALME-3M melanoma it was 15.8 µM; in the test with MDA-MB-231 breast, 7.07 µM. The TGI was 0.546 µM and 0.289 µM in the test on MDA-MB-435; 0.759 µM and 1.61 µM in the test with OVCAR-3 ovarian; 3.92 µM with RPMI-8226 leukemia; 6.28 µM with SK-OV-3 ovarian.
